Results published in patent US4277479A, “Tetrazolylalkoxycarbostyril derivatives and pharmaceutical compositions containing them” (Otsuka Pharmaceutical Co., Ltd., priority 1978, dated 1981).
Like-named read-outs stand apart in the source and are kept apart here.

Tests used:
[1] = target: T1, cyclic AMP phosphodiesterase (Oryctolagus cuniculus, UniProt G1ST54); assay: Obstructive action against cyclic AMP phosphodiesterase; type: biochemical, rabbit; details: 0.4 μmol cyclic AMP, read-out: Phosphodiesterase obstruction rate
T1 construct: the supernatant was collected to use it as a crude enzyme solution; from tissue; host or cells: rabbit platelets (from platelet-rich plasma)
T1 sequence (G1ST54 1-1128): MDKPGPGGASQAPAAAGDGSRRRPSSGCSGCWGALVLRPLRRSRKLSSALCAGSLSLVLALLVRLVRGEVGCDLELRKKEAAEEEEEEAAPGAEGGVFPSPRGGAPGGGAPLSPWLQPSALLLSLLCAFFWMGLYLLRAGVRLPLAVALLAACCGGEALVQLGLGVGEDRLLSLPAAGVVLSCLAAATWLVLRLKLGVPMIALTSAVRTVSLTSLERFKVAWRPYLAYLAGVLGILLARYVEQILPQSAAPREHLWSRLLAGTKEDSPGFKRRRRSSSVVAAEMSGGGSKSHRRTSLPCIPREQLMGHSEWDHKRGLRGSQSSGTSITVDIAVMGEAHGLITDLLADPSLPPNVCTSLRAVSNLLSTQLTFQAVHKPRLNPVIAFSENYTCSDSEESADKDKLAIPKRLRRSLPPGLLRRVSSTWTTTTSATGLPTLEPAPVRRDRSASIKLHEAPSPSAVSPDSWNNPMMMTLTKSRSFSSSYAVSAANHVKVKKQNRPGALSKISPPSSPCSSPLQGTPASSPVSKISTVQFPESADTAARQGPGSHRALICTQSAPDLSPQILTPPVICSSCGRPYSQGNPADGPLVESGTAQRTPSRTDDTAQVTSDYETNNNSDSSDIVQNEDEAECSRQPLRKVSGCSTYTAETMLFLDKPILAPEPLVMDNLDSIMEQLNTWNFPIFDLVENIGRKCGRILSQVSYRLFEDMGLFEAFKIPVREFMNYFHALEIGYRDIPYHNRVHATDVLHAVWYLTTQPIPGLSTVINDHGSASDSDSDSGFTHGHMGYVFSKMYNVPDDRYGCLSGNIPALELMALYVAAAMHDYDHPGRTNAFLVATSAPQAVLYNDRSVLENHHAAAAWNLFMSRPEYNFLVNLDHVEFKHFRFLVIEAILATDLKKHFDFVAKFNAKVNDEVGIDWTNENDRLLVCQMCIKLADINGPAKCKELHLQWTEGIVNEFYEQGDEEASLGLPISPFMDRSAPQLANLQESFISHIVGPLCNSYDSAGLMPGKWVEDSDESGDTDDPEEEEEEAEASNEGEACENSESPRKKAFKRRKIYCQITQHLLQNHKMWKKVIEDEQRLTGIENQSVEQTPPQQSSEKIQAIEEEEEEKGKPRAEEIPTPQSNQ
Experimental: (Test of obstructive action against cyclic AMP phosphodiesterase)
The obstructive action against cyclic AMP phosphodiesterase was measured according to the activity measuring method described in "Biochimica et Biophysica Acta", Vol. 429, pp. 485-497 (1976) and "Biochemical Medicine", Vol. 10, pp. 301-311 (1974).
That is, for determining the obstructive activity against cyclic AMP phosphodiesterase, 10 ml of a solution obtained by adding 1 mmol of MgCl2 into 50 mmol of tris-hydrochloric acid buffer with pH 7.4 was added to the platelets obtained by further centrifuging the above-said rabbit PRP at 3,000 r.p.m. for 10 minutes, and the suspended platelets were ground by a Teflon potter type homogenizer. This was followed by two times of freezing and thawing treatment and 300-second fracturing with 200 watt supersonic waves. After additional 60-minute centrifugation with 100,000 g, the supernatant was collected to use it as a crude enzyme solution.
10 Milliliters of this crude buffer solution was added to a 1.5×20 cm DEAE-cellulose column which has previously been buffered with 50 mmol of tris-acetate buffer (pH 6.0), followed by washing and elution with 30 ml of 50 mmol tris-acetate buffer, and this buffer solution was subjected to linear gradient elution with 0 to 1 moles of sodium acetate-tris-acetate buffer. The flow rate was 0.5 ml/min, and 5 ml of each fraction was batched out. […] This fraction was used as cyclic AMP phosphodiesterase.
0.1 Milliliter of an aqueous solution of each test compound of a specified concentration was mixed with 40 mmol of tris-hydrochloric acid buffer (pH 8.0, containing 50 μg of cow serum albumin and 4 mmol of MgCl2) containing predetermined 0.4 μmol of cyclic AMP (tritium cyclic AMP), and 0.2 ml of this mixed solution was used as a substrate solution.
0.2 Milliliter of the above-prepared cyclic AMP phosphodiesterase of a predetermined concentration was added to said substrate solution and the mixture was reacted at 30° C. for 20 minutes, producing tritium 5'-AMP from the tritium cyclic AMP.
The reaction system was then immersed in boiling water for 2 minutes to stop the reaction, and then this reaction solution was cooled in ice water and, for converting the produced tritium 5'-AMP into tritium adenosine, the solution was added with 0.05 ml (1 mg/ml) of snake poison as 5'-nucleotidase and reacted at 30° C. for 10 minutes. The whole amount of this reaction solutions was then added to a cation exchange resin (AG 500 W×4, 200-400 meshes, manufactured by Bio-Rad Co., column size: 0.5×1.5 cm), and the produced tritium anodesine alone was allowed to combine, washed with 6 ml of distilled water and eluted with 1.5 ml of 3 N-ammonia water. The whole quantity of the elutant was added with 10 ml of a triton-toluene type scintillator and the produced tritium adenosine was measured by a liquid scintillation counter to determine the phosphodiesterase activity.
In this way, the phosphodiesterase activation value (Vs) of the test compounds of the respective concentrations was determined, and the phosphodiesterase obstruction rate (%) was determined from said activation value (Vs) and control value (Vc) (obtained from water not containing any test compound) from the following formula: [formula]

[2] = system: rabbit platelet (collagen-induced aggregation); assay: Platelet aggregation inhibitory effect, collagen-induced aggregation in rabbit platelet; type: cell-based; details: Oryctolagus cuniculus, read-out: Inhibition effect on collagen-induced aggregation in rabbit platelet
Source text: (§1) The blood sample used for the test is a 1/9 (by volume) mixture of sodium citrate and whole blood collected from rabbit. Said sample is subjected to 10-minute centrifugal separation at 1,000 r.p.m. to obtain a platelet rich plasma (PRP). The thus obtained PRP is separated, and the remaining blood sample is further subjected to 15-minute centrifugal separation at 3,000 r.p.m. to obtain a platelet poor plasma (PPP).
(§2) The number of platelets in the PRP is counted by the Brecher-Clonkite Method, and the PRP is diluted with the PPP to prepare a PRP sample with platelet concentration of 300,000/mm^3 for the adenosine diphosphate (ADP)-induced aggregation test. There is also prepared a PRP sample with platelet concentration of 450,000/mm^3 for the collagen-induced aggregation test.
(§3) 0.6 Ml of said PRP sample is added into 0.01 ml of a solution of a test compound of a predetermined concentration and the mixture is placed in a 37° C. thermostat for one minute. Then 0.07 ml of an ADP or collagen solution is added to the mixture. Transmittance of this mixture is determined and the change of transmittance is recorded by using the aggregometer at stirrer speed of 1,100 r.p.m. […] ADP is adjusted to a concentration of 7.5×10^-5 M, and the collagen solution is prepared by triturating 100 mg of collagen with 5 ml of said buffer and the supernatant is used as collagen inducer. Adenosine and acetylsalicylic acid are used as controls for the ADP-induced aggregation test and the collagen-induced aggregation test, respectively. The platelet aggregation inhibitory effect is measured in terms of percent inhibition with respect to the aggregation rate of the controls. The aggregation rate is calculated from the following formula: [formula] wherein a: transmittance of PRP
(§4) b: transmittance of PRP containing a test compound and an aggregation inducer
(§5) The compounds tested are as follows.

[3] = system: rabbit platelet (ADP-induced aggregation); assay: Platelet aggregation inhibitory effect, ADP-induced aggregation in rabbit platelet; type: cell-based; details: Oryctolagus cuniculus; for inhibition at 100 µM / inhibition at 10 µM: read-out: Inhibition effect on ADP-induced aggregation in rabbit platelet; for inhibition at 1 µM: concentration of the test compound solution 10^-6 mole
Source text: as §1, §2, §3, §4, §5

Acute toxicity test = details: mouse, in vivo; male mice, oral administration
Experimental: The test compounds were administered orally to the mice and LD50 (mg/kg) of the compounds was determined.

[4] = concentration of the test compound solution 10^-4 mole
[5] = concentration of the test compound solution 10^-5 mole
[6] = concentration of the test compound solution 10^-6 mole

CC(C)Cn1c(=O)n(C)c(=O)c2[nH]cnc21 [1-Methyl-3-isobutylxanthine, 1-methyl-3-isobutylxanthine, reference compound]
inhibition at 1 µM ([1]; concentration of test compound solution 10^-6 mole): 63.4% | inhibition ([1]; concentration of test compound solution 10^-7 mole): 4.2%

O=C1CCc2cc(OCCN3CCOCC3)ccc2N1 [Compound 24, 6-(2-Morpholinoethoxy)-3,4-dihydrocarbostyril, reference compound]
inhibition at 100 µM [2, 4]: 31% | inhibition at 100 µM [3, 4]: 17%

O=C1CCc2c(cccc2OCCN2CCCCC2)N1 [Compound 21, 5-(2-Piperidinoethoxy)-3,4-dihydrocarbostyril, reference compound]
inhibition at 100 µM [2, 4]: 25% | inhibition at 100 µM [3, 4]: 18%

CC(C)n1nnnc1CCCOc1ccc2[nH]c(=O)ccc2c1 [Compound 2, 6-[3-(1-Isopropyltetrazol-5-yl)propoxy]carbostyril]
LD50 (Acute toxicity test): > 1000 mg/kg | inhibition at 100 µM [2, 4]: 100% | inhibition at 10 µM [2, 5]: 58.1% | inhibition at 1 µM [2, 6]: 11.8% | inhibition at 100 µM [3, 4]: 74.7% | inhibition at 10 µM [3, 5]: 36.8% | inhibition at 1 µM [3]: 11.9%

O=C1CCc2c(cccc2OCCN2CCOCC2)N1 [Compound 22, 5-(2-Morpholinoethoxy)-3,4-dihydrocarbostyril, reference compound]
inhibition at 100 µM [2, 4]: 23% | inhibition at 100 µM [3, 4]: 13%

CC(=O)N1C(=O)CCc2cc(OCCCc3nnnn3C3CCCCC3)ccc21 [Compound 14, 1-Acetyl-6-[3-(1-cyclohexyltetrazol-5-yl)propoxy]-3,4-dihydrocarbostyril]
LD50 (Acute toxicity test): > 1000 mg/kg | inhibition at 100 µM [2, 4]: 86.8% | inhibition at 10 µM [2, 5]: 47.3% | inhibition at 100 µM [3, 4]: 79.4% | inhibition at 10 µM [3, 5]: 43.2%

CSc1nnn(CCCOc2ccc3c(c2)CCC(=O)N3)n1 [Compound 19, 6-[3-(5-Methylthiotetrazol-2-yl)propoxy]-3,4-dihydrocarbostyril, reference compound]
inhibition at 100 µM [2, 4]: 73.4% | inhibition at 10 µM [2, 5]: 1.3% | inhibition at 100 µM [3, 4]: 2.3%

Cn1c(=O)ccc2cc(OCCCc3nnnn3C3CCCCC3)ccc21 [Compound 8, 1-Methyl-6-[3-(1-cyclohexyltetrazol-5-yl)propoxy]carbostyril]
LD50 (Acute toxicity test): > 1000 mg/kg | inhibition at 100 µM [2, 4]: 91.5% | inhibition at 10 µM [2, 5]: 43.4% | inhibition at 1 µM [2, 6]: 18.6% | inhibition at 100 µM [3, 4]: 87.8% | inhibition at 10 µM [3, 5]: 42.4% | inhibition at 1 µM [3]: 21.3%

O=c1ccc2cc(OCCCc3nnnn3C3CCCCC3)ccc2n1Cc1ccccc1 [Compound 12, 1-Benzyl-6-[3-(1-cyclohexyltetrazol-5-yl)propoxy]carbostyril]
LD50 (Acute toxicity test): > 1000 mg/kg | inhibition at 100 µM [2, 4]: 92.6% | inhibition at 10 µM [2, 5]: 41.5% | inhibition at 1 µM [2, 6]: 21.8% | inhibition at 100 µM [3, 4]: 76.8% | inhibition at 10 µM [3, 5]: 35.2%

CC(=O)Oc1ccccc1C(=O)O [Compound 17, Aspirin, reference compound]
inhibition at 1 µM [2]: 7% | inhibition at 10 µM [2]: 9% | inhibition at 100 µM [2]: 65% | inhibition at 10 µM [3]: 0% | inhibition at 100 µM [3]: 7%

O=C1CCc2cc(OCCCn3cnnn3)ccc2N1 [Compound 20, 6-[3-(Tetrazol-1-yl)propoxy]-3,4-dihydrocarbostyril, reference compound]
inhibition at 100 µM [2, 4]: 77.4% | inhibition at 10 µM [2, 5]: 0% | inhibition at 100 µM [3, 4]: 4.3%

CC(COc1cccc2c1NC(=O)CC2)N1CCCCC1 (centres unmarked) [Compound 26, 8-(2-Piperidinopropoxy)-3,4-dihydrocarbostyril, reference compound]
inhibition at 100 µM [2, 4]: 12% | inhibition at 100 µM [3, 4]: 14%

O=C1CCc2ccc(OCCCN3CCCCC3)cc2N1 [Compound 25, 7-(3-Piperidinopropoxy)-3,4-dihydrocarbostyril, reference compound]
inhibition at 100 µM [2, 4]: 18% | inhibition at 100 µM [3, 4]: 12%

O=C1CCc2c(cccc2OCCCN2CCCCC2)N1 [Compound 23, 5-(3-Piperidinopropoxy)-3,4-dihydrocarbostyril, reference compound]
inhibition at 100 µM [2, 4]: 27% | inhibition at 100 µM [3, 4]: 15%

CSc1nnnn1CCCOc1ccc2c(c1)CCC(=O)N2 [Compound 18, 6-[3-(5-Methylthiotetrazol-1-yl)propoxy]-3,4-dihydrocarbostyril, reference compound]
inhibition at 100 µM [2, 4]: 67.4% | inhibition at 10 µM [2, 5]: 13.3% | inhibition at 100 µM [3, 4]: 0%
